Assay results from ChEMBL document CHEMBL4376839, “Structure-Based Optimization of Coumarin hA3 Adenosine Receptor Antagonists” (J Med Chem, 2020).
pIC50, pKi: −log10 of the molar value.

Legend:
Adenosine receptor A1 = molecular target: T1, Adenosine receptor A1 (Homo sapiens, UniProt P30542); assay: Displacement of [3H]CCPA from human adenosine receptor A1 expressed in CHO cell membranes by radioligand competition assay
T1 sequence (P30542 whole entry): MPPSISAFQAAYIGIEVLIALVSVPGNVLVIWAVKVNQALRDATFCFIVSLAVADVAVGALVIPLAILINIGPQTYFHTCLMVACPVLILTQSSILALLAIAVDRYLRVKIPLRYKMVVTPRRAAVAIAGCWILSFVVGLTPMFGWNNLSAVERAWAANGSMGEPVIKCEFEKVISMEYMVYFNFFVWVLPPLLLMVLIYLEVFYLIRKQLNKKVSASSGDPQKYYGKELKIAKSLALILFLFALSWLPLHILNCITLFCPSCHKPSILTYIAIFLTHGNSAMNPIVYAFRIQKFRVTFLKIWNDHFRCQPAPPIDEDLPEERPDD

Adenosine receptor A2a = Adenosine receptor A2a (Homo sapiens, UniProt P29274); assay: Displacement of [3H]NECA from human adenosine receptor A2A expressed in CHO cell membranes by radioligand competition assay
Adenosine receptor A2a, sequence (P29274 whole entry): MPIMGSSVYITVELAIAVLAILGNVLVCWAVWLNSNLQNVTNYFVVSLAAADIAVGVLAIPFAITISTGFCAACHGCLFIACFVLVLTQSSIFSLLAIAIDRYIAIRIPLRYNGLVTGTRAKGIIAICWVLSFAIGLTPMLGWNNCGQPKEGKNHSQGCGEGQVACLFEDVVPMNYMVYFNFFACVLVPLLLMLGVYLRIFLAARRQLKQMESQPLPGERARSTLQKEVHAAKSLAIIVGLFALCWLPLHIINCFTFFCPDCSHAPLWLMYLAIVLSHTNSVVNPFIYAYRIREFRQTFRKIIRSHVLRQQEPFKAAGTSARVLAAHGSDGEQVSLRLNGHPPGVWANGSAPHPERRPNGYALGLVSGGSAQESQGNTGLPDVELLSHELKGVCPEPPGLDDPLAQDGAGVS

Adenosine receptor A3 [1] = molecular target: T2, Adenosine receptor A3 (Homo sapiens, UniProt P0DMS8); assay: Displacement of [3H]HEMADO from human adenosine receptor A3 expressed in CHO cell membranes by radioligand competition assay
T2 sequence (P0DMS8 whole entry): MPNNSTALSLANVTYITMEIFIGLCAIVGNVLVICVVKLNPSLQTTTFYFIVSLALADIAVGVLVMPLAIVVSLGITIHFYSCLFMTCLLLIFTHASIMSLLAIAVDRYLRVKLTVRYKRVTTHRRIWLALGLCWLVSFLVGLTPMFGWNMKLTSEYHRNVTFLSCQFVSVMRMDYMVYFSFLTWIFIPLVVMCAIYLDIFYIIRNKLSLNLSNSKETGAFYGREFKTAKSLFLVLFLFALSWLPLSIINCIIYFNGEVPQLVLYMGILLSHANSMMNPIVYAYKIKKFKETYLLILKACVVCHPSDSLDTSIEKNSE

Adenosine receptor A2b [2] = molecular target: T3, Adenosine receptor A2b (Homo sapiens, UniProt P29275); assay: Antagonist activity at human adenosine receptor A2B expressed in CHO cells assessed as inhibition of NECA-stimulated adenylyl cyclase activity
T3 sequence (P29275 whole entry): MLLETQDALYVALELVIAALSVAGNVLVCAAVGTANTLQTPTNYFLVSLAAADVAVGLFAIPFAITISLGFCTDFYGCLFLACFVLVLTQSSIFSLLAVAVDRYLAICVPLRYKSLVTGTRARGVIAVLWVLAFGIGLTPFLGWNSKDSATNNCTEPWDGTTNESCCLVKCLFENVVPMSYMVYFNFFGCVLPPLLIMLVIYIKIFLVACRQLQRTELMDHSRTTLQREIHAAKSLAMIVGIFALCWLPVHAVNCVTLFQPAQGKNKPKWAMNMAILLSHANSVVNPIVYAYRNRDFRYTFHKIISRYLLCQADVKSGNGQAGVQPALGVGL

Adenosine receptor A2b [3] = molecular target: T3, Adenosine receptor A2b; assay: as above; remark: listed apart in the source
Adenosine receptor A3 [4] = molecular target: T2, Adenosine receptor A3; assay: Antagonist activity at human adenosine receptor A3 expressed in CHO cells assessed as suppression of NECA-induced decrease of cAMP accumulation by Glo-sensor cAMP assay; type: functional, cell-based

| Structure (SMILES) | pKi (Adenosine receptor A1) | pKi (Adenosine receptor A2a) | pKi (Adenosine receptor A3 [1]) | pKi (Adenosine receptor A2b [2]) | pIC50 (Adenosine receptor A2b [3]) | pIC50 (Adenosine receptor A3 [4]) |
| --- | --- | --- | --- | --- | --- | --- |
| CC(=O)COc1cccc2cc(-c3ccc(Br)cc3)c(=O)oc12 | < 4.00 | < 4.00 | < 4.52 | < 4.52 | – | – |
| Cc1cccc2cc(-c3ccc([N+](=O)[O-])cc3)c(=O)oc12 | < 4.00 | < 4.00 | < 4.00 | < 4.52 | < 4.52 | – |
| CCOc1cccc2cc(-c3ccc(Br)cc3)c(=O)oc12 | < 4.00 | < 4.00 | < 4.00 | < 4.52 | < 4.52 | – |
| O=c1oc2c(O)cccc2cc1-c1ccc(Br)cc1 | < 4.00 | < 4.00 | – | < 4.52 | < 4.52 | – |
| COc1cccc2cc(-c3ccc([N+](=O)[O-])cc3)c(=O)oc12 | < 4.00 | 4.23 | 5.10 | < 4.52 | < 4.52 | – |
| CCOc1cccc2cc(-c3ccc([N+](=O)[O-])cc3)c(=O)oc12 | < 4.00 | < 4.00 | < 4.00 | < 4.52 | < 4.52 | – |
| CCOc1cccc2cc(-c3cc(OC)c(OC)c(OC)c3)c(=O)oc12 | < 4.00 | < 4.00 | 5.04 | < 4.52 | < 4.52 | – |
| CCOc1cccc2cc(-c3ccc(C)cc3)c(=O)oc12 | < 4.00 | < 4.22 | 5.41 | < 4.52 | < 4.52 | 4.74 |
| COc1ccc(-c2cc3cccc(OC)c3oc2=O)cc1 | < 4.00 | < 4.00 | 5.30 | < 4.52 | < 4.52 | 4.60 |
| CC(=O)Oc1ccc(-c2cc3cccc(OC(C)=O)c3oc2=O)cc1OC(C)=O | < 4.00 | 4.19 | 4.66 | < 4.52 | < 4.52 | – |
| Cc1ccc(-c2cc3cccc(C)c3oc2=O)cc1 | < 4.00 | < 4.00 | 4.78 | < 4.52 | < 4.52 | – |
| CCOc1cccc2cc(-c3ccc(OC)cc3)c(=O)oc12 | < 4.00 | < 4.00 | 5.27 | < 4.52 | < 4.52 | 4.53 |
| CC(=O)Oc1ccc(-c2cc3ccc(OC(C)=O)c(OC(C)=O)c3oc2=O)cc1 | < 4.00 | < 4.00 | 5.21 | < 4.52 | < 4.52 | – |

Now from value to compound:

| pKi (Adenosine receptor A1) | pKi (Adenosine receptor A2a) | pKi (Adenosine receptor A3 [1]) | pKi (Adenosine receptor A2b [2]) | pIC50 (Adenosine receptor A2b [3]) | pIC50 (Adenosine receptor A3 [4]) | Structure (SMILES) |
| --- | --- | --- | --- | --- | --- | --- |
| < 4.00 | < 4.00 | 6.20 | < 4.52 | – | – | CC(=O)COc1cccc2cc(-c3ccc(C)cc3)c(=O)oc12 |
| < 4.00 | < 4.00 | 4.78 | < 4.52 | < 4.52 | – | CCOc1cccc2cc(-c3ccc(OC)cc3OC)c(=O)oc12 |
| < 4.00 | < 4.00 | 4.63 | < 4.52 | < 4.52 | – | CC(=O)Oc1ccc(-c2cc3ccc(OC(C)=O)c(OC(C)=O)c3oc2=O)cc1OC(C)=O |
| < 4.00 | 4.59 | 4.87 | < 4.52 | < 4.52 | – | COc1ccc(-c2cc3cccc(C)c3oc2=O)cc1OC |
| < 4.00 | < 4.00 | 4.86 | < 4.52 | < 4.52 | – | CCOc1cccc2cc(-c3ccc(OC)c(OC)c3)c(=O)oc12 |
| 4.98 | 4.79 | 5.15 | < 4.52 | – | – | CC(=O)COc1cccc2cc(-c3ccccc3)c(=O)oc12 |
| 5.21 | 4.85 | 4.63 | < 4.52 | < 4.52 | – | O=c1oc2c(O)cccc2cc1-c1ccc(O)c(O)c1 |
| 4.83 | 4.38 | 4.77 | < 4.52 | < 4.52 | – | Cc1cccc2cc(-c3ccccc3)c(=O)oc12 |
| 5.34 | 4.37 | 5.29 | < 4.52 | < 4.52 | – | O=c1oc2c(O)cccc2cc1-c1ccccc1 |
| 5.07 | 4.68 | 5.29 | < 4.52 | < 4.52 | – | CC(=O)Oc1ccc2cc(-c3ccccc3)c(=O)oc2c1OC(C)=O |
| 5.16 | 4.45 | 5.16 | < 4.52 | < 4.52 | – | CC(=O)Oc1cccc2cc(-c3ccccc3)c(=O)oc12 |
| 4.66 | 4.26 | 4.65 | < 4.52 | < 4.52 | – | CCOc1cccc2cc(-c3ccccc3)c(=O)oc12 |
| 4.83 | < 4.00 | 4.84 | < 4.52 | < 4.52 | – | Cc1cccc2cc(-c3cc(O)c(O)c(O)c3)c(=O)oc12 |
| < 4.22 | 4.48 | 5.01 | < 4.52 | < 4.52 | – | COc1cc(-c2cc3cccc(C)c3oc2=O)cc(OC)c1OC |
| 5.62 | 4.92 | 5.41 | < 4.52 | < 4.52 | – | O=c1oc2c(O)c(O)ccc2cc1-c1ccccc1 |
| 5.20 | 4.59 | 5.07 | < 4.52 | < 4.52 | – | O=c1oc2c(O)c(O)ccc2cc1-c1ccc(O)c(O)c1 |
| 4.90 | 4.26 | 5.04 | < 4.52 | < 4.52 | – | O=c1oc2c(O)c(O)ccc2cc1-c1ccc(O)cc1 |
